In US6177438A, “Morphinan derivatives and pharmaceutical use thereof” (priority 1993, dated 2001):
Where a name gives a salt, the structure may show the parent alone.

Experiments:
κ receptor [1] = molecular target: T1, κ receptor (Mus musculus, UniProt P33534); test: Opioid activity test using an extracted mouse vas deferens preparation, Ke with norBNI; parameters: species or system male ddy mouse; settings: for Ke, norBNI: κ, norBNI added; for receptor selectivity of agonist (κ): in words
T1 construct: from tissue; host or cells: mouse (male ddy) vas deferens

[2] = test system: cultured nerve cells (cerebral cortex); test: cells; settings: Rattus norvegicus, Cerebral cortex neuron, 24 h, read-out: ED50 (protection against glutamic acid toxicity)
[3] = test system: extracted mouse vas deferens preparation; test: Opioid activity test using an extracted mouse vas deferens preparation (suppression of electrically induced contractions); parameters: species or system male ddy mouse; settings: electrical stimulus 0.1 Hz, 37° C.
Outline: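 Male ddY mouse vas deferens in Krebs-Henseleit at 37° C, 5% CO2/95% O2, field-stimulated at 0.1 Hz, 5.0 ms; isometric contractions recorded. After adding naloxone, NTI or norBNI, test compound was added cumulatively after ~20 min; Ke derived from the difference in agonist efficacies.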

[4] = test system: guinea pig respiratory tract; test: Antitussive action using the guinea pig respiratory tract stimulation method; format: in vivo, male Hartley guinea pigs; settings: for ED50: Cavia porcellus, sc; for No. of Animals in which Coughing was Suppressed/No. of Animals Tested: s.c.
Description: Evaluation of Antitussive Action Using the Guinea Pig Respiratory Tract Stimulation Method
Male Hartley guinea pigs having body weights of 330-380 g were used in this test in groups of 5 animals each. The animals were immobilized in the supine position under mild anesthesia by intraperitoneal administration of 15 mg/kg of sodium pentobarbital. An incision was made in the necks of the animals to expose the respiratory tract. A small hole was opened in the exposed respiratory tract, and stimulating hairs were inserted to a depth of roughly 3 cm and at an angle of 30 degrees to the respiratory tract through the opened hole to provide a stimulus to the inner wall of the respiratory tract. The animals were then examined for the presence of coughing. […] The test drug was administered subcutaneously, and stimuli were provided two times each 15, 30, 60 and 120 minutes after administration.

[5] = test system: cultured nerve cells (cerebral cortex); settings: 10 mM glutamic acid, 24 hours
[6] = test system: acetic acid-induced writhing in ddy mice; test: animal or person; format: in vivo, 5 week old ddy mice; settings: Mus musculus, sc, s.c. 15 minutes before acetic acid, read-out: ED50
Description: 5 week old ddy mice were used in this test. After intraperitoneal administration of 0.1 ml of 0.6% aqueous acetic acid per 10 g of body weight, the number of writhing reactions that occurred in 10 minutes starting 10 minutes after administration was evaluated for the indicator. The test drug was administered subcutaneously into the backs of the animals 15 minutes before administration of acetic acid.

[7] = Diuretic action (urine output for 5 hours after physiological saline loading in rats); format: in vivo, male Wistar rats; settings: Rattus norvegicus, sc, 5 hours after saline 20 ml/kg p.o.; for ED (200% urine output): dose giving urine output of 200 (non-dosed group = 100); for ED (500% urine output): dose giving urine output of 500 (non-dosed group = 100)
Outline: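 Male Wistar rats (7-8 weeks), water withheld 1 h, bladder emptied, drug given subcutaneously; 30 min later 20 ml/kg saline orally. Urine collected 5 h after saline loading in metabolic cages; ED200 and ED500 are doses giving urine output of 200 and 500 relative to non-dosed group at 100.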

[8] = test system: nerve cells in the region of the hippocampus CA1; test: Delayed neuronal death protective action (gerbil transient ischemia model, hippocampus CA1 nerve cell count); format: in vivo, gerbils; settings: s.c.; for No. of Residual Nerve Cells: 1 week after ligation; for Suppression of defluxion of brain nerve cells caused by ischemia / cerebro-neuroprotective activity (in words): gerbils
Description: Those compounds that provide protection from and suppress delayed neuronal death described in Example 238 are considered to be promising as preventive and therapeutic agents for ischemic brain disorders, brain nerve cell disorders and dementia, which are problems that the present invention is attempting to solve. The pharmacological activity of the compounds of the present invention was evaluated in the manner below using gerbils for the animal model.
A midline incision was made in gerbils having body weights of 50-70 g under ether anesthesia. Blood flow through the carotid arteries on both sides was interrupted to create an ischemic state by ligating the vessels for 5 minutes. The test compound was administered subcutaneously either 30 minutes or 1 hour prior to ligation ischemia, and the rectal temperature of the animals was controlled to 37±2° C. using a heating pad or heater starting 5 minutes before to 30 minutes after ligation ischemia. 1 week after ligation, 4% neutral buffered formalin was perfused from the heart throughout the body followed by extraction of the brain. After post-fixing the extracted brain in the same solution, the tissue was prepared into sections after embedding in paraffin. The sections were stained with hematoxylin and eosin stain, and the number of nerve cells in the region of the hippocampus CA1 over a width of 1 mm to the left and right was counted. The total number of nerve cells on the right and left sides was then used for evaluation.

δ receptor = molecular target: T2, δ receptor (Mus musculus, UniProt P32300); parameters: species or system male ddy mouse; settings: mouse vas deferens, δ, NTI added
T2 construct: The vas deferens extracted from the animal was suspended in a Magnus tube; from tissue; host or cells: mouse (male ddy) vas deferens

μ receptor [9] = molecular target: T3, μ receptor (Mus musculus, UniProt P42866); test: Opioid activity test using an extracted mouse vas deferens preparation, Ke with naloxone; parameters: species or system male ddy mouse; settings: naloxone added
T3 construct: naloxone as mu antagonist (printed 'agonist')

μ receptor [10] = test: Opioid activity test using an extracted guinea pig ileum preparation, Ke with naloxone; parameters: species or system male Hartley guinea pig; settings: naloxone added
Description: (§1) A male Hartley guinea pig was used in this test. After sacrificing the guinea pig and extracting the ileum, the lumen was washed with nutrient solution and only the longitudinal muscle was isolated. This longitudinal muscle was suspended in a Magnus tube filled with Krebes-Henseleit solution (NaCl 118 mM; KCl 4.7 mM; CaCl2 2.5 mM; KH2 PO4 1.2 mM; NaHCO3 25 mM; MgSO4 1.2 mM; Glucose 10 mM) warmed to 37° C. and ventilated with 5% carbon dioxide and 95% oxygen. Electrical stimulus was performed at 0.1 Hz for 5.0 ms by means of ring-shaped platinum electrodes located above and below. Tissue contractions were recorded on a polygraph using an isometric transducer.
(§2) After adequately washing with nutrient solution and the contraction reaction stabilized, the μ agonist, naloxone, or the κ agonist, norBNI, was added after which the test compound was again cumulatively added after roughly 20 minutes. The Ke value was calculated using the following calculation formula from the difference in the efficacies of both agonists.
(§3) Ke=[Conc. of added agonist]/(IC50 ratio-1)
(§4) IC50 ratio=IC50 in the presence of agonist/IC50 in the absence of agonist

[11] = test system: extracted guinea pig ileum preparation; test: Opioid activity test using an extracted guinea pig ileum preparation (suppression of electrically induced contractions); parameters: species or system male Hartley guinea pig; settings: Cavia porcellus, electrical stimulus 0.1 Hz, 37° C.
Description: as §1, §2

κ receptor [12] = molecular target: T4, κ receptor (Cavia porcellus, UniProt P41144); test: Opioid activity test using an extracted guinea pig ileum preparation, Ke with norBNI; parameters: species or system male Hartley guinea pig; settings: norBNI added
T4 construct: After sacrificing the guinea pig and extracting the ileum; from tissue; host or cells: guinea pig (male Hartley) ileum, longitudinal muscle
Description: as §1, §2, §3, §4

[13] = 0.03 mg/kg, 30 minutes before ischemia
[14] = 0.3 mg/kg, 30 minutes before ischemia
[15] = 3 mg/kg, 30 minutes before ischemia

T1 sequence (P33534 whole entry): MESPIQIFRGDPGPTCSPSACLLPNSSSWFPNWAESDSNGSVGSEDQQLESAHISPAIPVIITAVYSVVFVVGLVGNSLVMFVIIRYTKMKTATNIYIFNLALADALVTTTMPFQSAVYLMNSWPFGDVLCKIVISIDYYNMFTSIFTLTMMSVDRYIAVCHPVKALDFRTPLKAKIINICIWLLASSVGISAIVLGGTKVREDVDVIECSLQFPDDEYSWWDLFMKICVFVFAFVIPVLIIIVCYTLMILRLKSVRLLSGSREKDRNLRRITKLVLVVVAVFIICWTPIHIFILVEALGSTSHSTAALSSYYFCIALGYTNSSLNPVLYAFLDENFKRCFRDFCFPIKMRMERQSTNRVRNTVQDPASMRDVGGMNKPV
T2 sequence (P32300 whole entry): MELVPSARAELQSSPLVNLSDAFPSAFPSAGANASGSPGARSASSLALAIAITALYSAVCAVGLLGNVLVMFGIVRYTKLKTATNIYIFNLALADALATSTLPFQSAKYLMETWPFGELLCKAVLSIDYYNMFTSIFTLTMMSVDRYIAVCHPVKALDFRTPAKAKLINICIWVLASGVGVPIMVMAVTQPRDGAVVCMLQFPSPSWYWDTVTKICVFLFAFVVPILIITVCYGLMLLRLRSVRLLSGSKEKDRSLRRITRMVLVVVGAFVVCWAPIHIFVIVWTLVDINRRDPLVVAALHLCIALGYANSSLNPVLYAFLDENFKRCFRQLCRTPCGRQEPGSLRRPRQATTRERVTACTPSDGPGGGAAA
T3 sequence (P42866 whole entry): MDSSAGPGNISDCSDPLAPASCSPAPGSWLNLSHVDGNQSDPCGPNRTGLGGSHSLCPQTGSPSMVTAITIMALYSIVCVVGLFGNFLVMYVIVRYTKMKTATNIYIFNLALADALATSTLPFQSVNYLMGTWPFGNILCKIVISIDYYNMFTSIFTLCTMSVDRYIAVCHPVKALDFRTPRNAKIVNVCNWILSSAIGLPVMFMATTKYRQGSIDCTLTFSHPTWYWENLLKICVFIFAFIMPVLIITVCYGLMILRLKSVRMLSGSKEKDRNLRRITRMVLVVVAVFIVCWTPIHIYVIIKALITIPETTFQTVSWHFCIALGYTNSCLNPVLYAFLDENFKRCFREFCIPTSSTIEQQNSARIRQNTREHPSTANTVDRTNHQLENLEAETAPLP
T4 sequence (P41144 whole entry): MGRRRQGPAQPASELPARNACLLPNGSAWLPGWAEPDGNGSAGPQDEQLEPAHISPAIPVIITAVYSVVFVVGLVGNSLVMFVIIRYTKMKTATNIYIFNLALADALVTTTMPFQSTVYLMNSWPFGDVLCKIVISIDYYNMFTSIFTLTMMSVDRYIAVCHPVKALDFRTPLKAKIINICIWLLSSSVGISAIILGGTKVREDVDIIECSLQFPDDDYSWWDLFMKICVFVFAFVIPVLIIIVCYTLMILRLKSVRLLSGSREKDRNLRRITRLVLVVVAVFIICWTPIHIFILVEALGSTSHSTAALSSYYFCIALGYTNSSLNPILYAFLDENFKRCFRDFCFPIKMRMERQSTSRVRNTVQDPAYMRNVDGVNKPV

| Structure (SMILES) | Ke, norBNI (κ receptor [1]) [nM] | EC50 [2] [nM] | IC50 [3] [nM] | ED50 [4] [µg/kg] | Protective action against cytotoxicity caused by glutamic acid (in words) [5] | ED50 [6] [µg/kg] | ED (200% urine output) [7] [µg/kg] | ED (500% urine output) [7] [µg/kg] | Suppression of defluxion of brain nerve cells caused by ischemia / cerebro-neuroprotective activity (in words) [8] | receptor selectivity of agonist (κ) (κ receptor [1]) | Ke, NTI (δ receptor) [nM] | No. of Animals in which Coughing was Suppressed/No. of Animals Tested ([4]; 1 μg/kg) | No. of Animals in which Coughing was Suppressed/No. of Animals Tested ([4]; 3 μg/kg) | No. of Animals in which Coughing was Suppressed/No. of Animals Tested ([4]; 30 μg/kg) | No. of Residual Nerve Cells [8, 13] | No. of Residual Nerve Cells [8, 14] | No. of Residual Nerve Cells [8, 15] | Ke, Naloxone (μ receptor [9]) [nM] | other results |
| --- | --- | --- | --- | --- | --- | --- | --- | --- | --- | --- | --- | --- | --- | --- | --- | --- | --- | --- | --- |
| CN(C(=O)/C=C/c1ccoc1)[C@@H]1CC[C@@]2(O)[C@H]3Cc4ccc(O)c5c4[C@@]2(CCN3CC2CC2)[C@H]1O5 [Compound 61, 17-cyclopropylmethyl-3,14β-dihydroxy-4,5α-epoxy-6β-[N-methyl-trans-3-(3-furyl)acrylamido]morphinan.cndot.tartrate] | 0.164 | 16300 | 0.42 | 3.7 | clearly demonstrated action that protects nerve cells from cytotoxicity caused by glutamic acid | 4.4 | 3.2 | 157 | – | – | – | – | – | – | – | – | – | – | – |
| CN(C(=O)/C=C/c1cccc(C(F)(F)F)c1)[C@@H]1CC[C@@]2(O)[C@H]3Cc4ccc(O)c5c4[C@@]2(CCN3CC2CC2)[C@H]1O5 [Compound 60, 17-cyclopropylmethyl-3,14β-dihydroxy-4,5α-epoxy-6β-(N-methyl-3-trifluoromethylcinnamamido)morphinan.cndot.tartrate] | 3.20 | 1310 | 0.468 | 2.6 | clearly demonstrated action that protects nerve cells from cytotoxicity caused by glutamic acid | 4.6 | 14.3 | 1130 | significantly suppress defluxion of brain nerve cells caused by ischemia | selective agonists for κ receptors | 291 | 1/5 | 3/5 | 5/5 | – | – | – | – | No. of Residual Nerve Cells ([8]; 0.03 mg/kg, 1 hour before ischemia): 52.1 ± 14.8; No. of Residual Nerve Cells ([8]; 0.3 mg/kg, 1 hour before ischemia): 148.3 ± 28.5; No. of Residual Nerve Cells ([8]; 3 mg/kg, 1 hour before ischemia): 284.5 ± 7.1 |
| CN(C(=O)/C=C/c1cccc([N+](=O)[O-])c1)[C@@H]1CC[C@@]2(O)[C@H]3Cc4ccc(O)c5c4[C@@]2(CCN3CC2CC2)[C@H]1O5 [Compound 104, 17-cyclopropylmethyl-3,14β-dihydroxy-4,5α-epoxy-6β-(N-methyl-3-nitrocinnamamido)morphinan.cndot.tartrate] | 1.40 | 5450 | 0.227 | – | clearly demonstrated action that protects nerve cells from cytotoxicity caused by glutamic acid | 17 | – | – | significantly suppress defluxion of brain nerve cells caused by ischemia | selective agonists for κ receptors | 89 | – | – | – | 12.0 ± 3.0 | 14.8 ± 1.2 | 106.2 ± 65.6 | 185 | – |
| CN(C(=O)Cc1ccc(Cl)c(Cl)c1)[C@H]1CC[C@@]2(O)[C@H]3Cc4ccc(O)c5c4[C@@]2(CCN3CC2CC2)[C@H]1O5 [Compound 1, 17-cyclopropylmethyl-4,5α-epoxy-3,14β-dihydroxy-6α-(N-methyl-3,4-dichlorophenylacetamido)morphinan] | 0.548 | 500 | 0.395 | – | clearly demonstrated action that protects nerve cells from cytotoxicity caused by glutamic acid | 17 | 2.7 | 45.7 | – | selective agonists for κ receptors | 17.3 | – | – | – | – | – | – | 53 | Ke, Naloxone (μ receptor [10]): 650 nM; IC50 [11]: 0.026 nM; Ke, norBNI (κ receptor [12]): 0.16 nM |
| Cc1cccc(/C=C/C(=O)N(C)[C@@H]2CC[C@@]3(O)[C@H]4Cc5ccc(O)c6c5[C@@]3(CCN4CC3CC3)[C@H]2O6)c1 [Compound 69, 17-cyclopropylmethyl-3,14β-dihydroxy-4,5α-epoxy-6β-(N-methyl-3-methylcinnamamido)morphinan.cndot.hydrochloride] | 1.95 | – | 0.32 | 12.5 | – | 4.9 | – | – | significantly suppress defluxion of brain nerve cells caused by ischemia | selective agonists for κ receptors | 64.5 | 1/5 | 1/5 | 4/5 | 12.4 ± 3.0 | 43.3 ± 19.1 | 178.3 ± 30.4 | 1780 | – |
